Tests used:
TS-resistant MG = assay: Experimental MG infection to chicken, through bait; format: in vivo; conditions: 9-days chicken; for Number of infected fowl/Number of fowl tested: 6.6 x 10³ CFU/fowl, dissection 6th day after inoculation; for Number of fowl having air sack lesions / Infectious index Left air sack + / Infectious index Left air sack ++ / Infectious index Left air sack +++ / Infectious index Left air sack - / Infectious index Right air sack + / Infectious index Right air sack ++ / Infectious index Right air sack +++ / Infectious index Right air sack -: 1.8 x 10³ CFU/fowl; for Infectious index Left air sack + / Infectious index Left air sack ++ / Infectious index Left air sack +++ / Infectious index Left air sack - / Infectious index Right air sack + / Infectious index Right air sack ++ / Infectious index Right air sack +++ / Infectious index Right air sack -: count of fowl
[1] = tested on: Streptococcus sp (Str.sp) SNO6119; assay: In vitro sensitivity test; format: cell-based; conditions: 25°C, 40 to 48 hours
[2] = tested on: Pasteurella piscicida (P.pis) No. 2; assay: In vitro sensitivity test; format: cell-based; conditions: 25°C, 40 to 48 hours
In short: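 For the fish-origin P.pis strain this meant heart infusion agar supplemented with 1.5 % NaCl at 25°C for 40 to 48 hours. S.au plates used Mueller Hinton agar at 37°C for 20 to 24 hours. MS broths used Frey medium with 12 % pig-serum and 0.01 % βNAD at 37°C for 7 days.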

## Cl.Nc1c(F)c(N2C[C@@H]3CC[C@@H](N)[C@@H]3C2)c(F)c2c1c(=O)c(C(=O)O)cn2C1CC1 (relative stereo) [I-16]
TS-resistant MG; bait 3.13 ppm/Day
  Number of infected fowl/Number of fowl tested: 2/7
TS-resistant MG; bait 15.6 ppm/Day
  Number of fowl having air sack lesions: 3
  Infectious index Left air sack +: 0
  Infectious index Left air sack ++: 0
  Infectious index Left air sack +++: 0
  Infectious index Left air sack -: 5
  Infectious index Right air sack +: 1
  Infectious index Right air sack ++: 2
  Infectious index Right air sack +++: 0
  Infectious index Right air sack -: 2
TS-resistant MG; bait 31.3 ppm/Day
  Number of fowl having air sack lesions: 3
  Infectious index Left air sack +: 0
  Infectious index Left air sack ++: 0
  Infectious index Left air sack +++: 0
  Infectious index Left air sack -: 5
  Infectious index Right air sack +: 1
  Infectious index Right air sack ++: 2
  Infectious index Right air sack +++: 0
  Infectious index Right air sack -: 2
TS-resistant MG; bait 62.5 ppm/Day
  Number of fowl having air sack lesions: 0
  Number of infected fowl/Number of fowl tested: 0/7
  Infectious index Left air sack +: 0
  Infectious index Left air sack ++: 0
  Infectious index Left air sack +++: 0
  Infectious index Left air sack -: 5
  Infectious index Right air sack +: 0
  Infectious index Right air sack ++: 0
  Infectious index Right air sack +++: 0
  Infectious index Right air sack -: 5
TS-resistant MG; bait 125 ppm/Day
  Number of infected fowl/Number of fowl tested: 0/7
[1]
  In vitro Sensitivity Test Str.sp SNO6119: 0.39 µg/mL
[2]
  In vitro Sensitivity Test P.pis No. 2: 0.39 µg/mL

— patent EP0429304A2, “Pyridone-carboxylic acid derivatives and their use as veterinary medicines” (SHIONOGI SEIYAKU KABUSHIKI KAISHA trading under the name of …, priority 1989, dated 1991)
